Results on seven compounds are retold here after PubChem BioAssay AID192 (DTP/NCI, 2004).

“And” between values parts separate entries of the source, which are not always exact repeats. Identical values can stand only once. Inconclusive results and toxic doses are left out.

In this test the test system is BDF1 mice, B16 melanoma ip, median survival T/C. The test is described as follows: NCI In Vivo Anticancer Drug Screen. Data for tumor model B16 Melanoma (intraperitoneal) in B6D2F1 (BDF1) mice. As to conditions: endpoint: median survival time, higher = longer survival. Put shortly:
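Tumor-bearing mice received test compound or vehicle. Survival or tumor size was then measured in both groups. The treated-group figure was divided by the control-group figure.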

[1] abbreviates: dose: 12.5 mg/kg/injection, schedule: Q01DX009 (ip), vehicle: saline with Tween-80.
Setting [2] is: dose: 25.0 mg/kg/injection, schedule: Q01DX009 (ip), vehicle: saline with Tween-80.
The mark [3] stands for this setting: dose: 100.0 mg/kg/injection, schedule: Q01DX009 (ip), vehicle: Klucel (hydroxypropylcellulose) (HPC).
The mark [4] stands for this setting: dose: 200.0 mg/kg/injection, schedule: Q01DX009 (ip), vehicle: Klucel (hydroxypropylcellulose) (HPC).

Regarding `CC[C@]1(O)C[C@H]2CN(CCc3c([nH]c4ccccc34)[C@@](C(=O)OC)(c3cc4c(cc3OC)N(C)[C@H]3[C@@](O)(C(=O)OC)[C@H](OC(C)=O)[C@]5(CC)C=CCN6CC[C@]43[C@@H]65)C2)C1`, the T/C (dose: 0.03 mg/kg/injection, schedule: Q01DX009 (ip), vehicle: saline) is 152 % of control; the T/C (dose: 0.05 mg/kg/injection, schedule: Q01DX009 (ip), vehicle: saline) is 161 % of control; the T/C (dose: 0.06 mg/kg/injection, schedule: Q01DX009 (ip), vehicle: water) is 165 % of control; the T/C (dose: 0.1 mg/kg/injection, schedule: Q01DX009 (ip), vehicle: saline) is 152 % of control and 155 % of control; the T/C (dose: 0.12 mg/kg/injection, schedule: Q01DX009 (ip), vehicle: water) is 110 % of control; the T/C (dose: 0.2 mg/kg/injection, schedule: Q01DX009 (ip), vehicle: saline) is 186 % of control and 189 % of control. For the same compound, the T/C is, setting by setting: (dose: 0.22 mg/kg/injection, schedule: Q01DX009 (ip), vehicle: saline) 196 % of control; (dose: 0.22 mg/kg/injection, schedule: Q01DX009 (ip), vehicle: water) 197 % of control; (dose: 0.25 mg/kg/injection, schedule: Q01DX009 (ip), vehicle: water) 163 % of control and 216 % of control; (dose: 0.36 mg/kg/injection, schedule: Q01DX009 (ip), vehicle: saline) 240 % of control; (dose: 0.36 mg/kg/injection, schedule: Q01DX009 (ip), vehicle: water) 181 % of control; (dose: 0.39 mg/kg/injection, schedule: Q04DX003 (ip), vehicle: saline) 162 % of control. Besides, the T/C is 219 % of control (dose: 0.4 mg/kg/injection, schedule: Q01DX009 (ip), vehicle: saline); 154 % of control (dose: 0.5 mg/kg/injection, schedule: Q04DX003 (ip), vehicle: saline); 250 % of control (dose: 0.6 mg/kg/injection, schedule: Q01DX009 (ip), vehicle: saline); 151 % of control (dose: 0.63 mg/kg/injection, schedule: Q04DX003 (ip), vehicle: saline); 164 % of control (dose: 0.65 mg/kg/injection, schedule: Q04DX003 (ip), vehicle: saline); 260 % of control and 299 % of control (dose: 0.8 mg/kg/injection, schedule: Q01DX009 (ip), vehicle: saline). Besides, the T/C by setting is: (dose: 0.8 mg/kg/injection, schedule: Q04DX003 (ip), vehicle: water) 161 % of control; (dose: 1.0 mg/kg/injection, schedule: Q04DX003 (ip), vehicle: saline) 170 % of control; (dose: 1.08 mg/kg/injection, schedule: Q04DX003 (ip), vehicle: saline) 201 % of control; (dose: 1.44 mg/kg/injection, schedule: Q04DX003 (ip), vehicle: water) 190 % of control; (dose: 1.8 mg/kg/injection, schedule: Q04DX003 (ip), vehicle: saline) 206 % of control; (dose: 2.0 mg/kg/injection, schedule: Q04DX003 (ip), vehicle: saline) 212 % of control. For the same compound, the T/C is 221 % of control (dose: 2.4 mg/kg/injection, schedule: Q04DX003 (ip), vehicle: water); 189 % of control (dose: 2.5 mg/kg/injection, schedule: Q04DX003 (ip), vehicle: saline); 224 % of control (dose: 3.2 mg/kg/injection, schedule: Q04DX003 (ip), vehicle: water); 254 % of control (dose: 4.0 mg/kg/injection, schedule: Q04DX003 (ip), vehicle: saline); 158 % of control (dose: 4.8 mg/kg/injection, schedule: Q01DX001 (ip), vehicle: water); 197 % of control (dose: 216.0 micrograms/kg/injection, schedule: Q01DX009 (ip), vehicle: saline). Further, the T/C is 155 % of control (dose: 360.0 micrograms/kg/injection, schedule: Q01DX009 (ip), vehicle: water); 158 % of control and 163 % of control (dose: 389.0 micrograms/kg/injection, schedule: Q04DX003 (ip), vehicle: saline); 216 % of control (dose: 600.0 micrograms/kg/injection, schedule: Q01DX009 (ip), vehicle: saline); 152 % of control and 171 % of control and 197 % of control (dose: 648.0 micrograms/kg/injection, schedule: Q04DX003 (ip), vehicle: saline); 198 % of control (dose: 1080.0 micrograms/kg/injection, schedule: Q04DX003 (ip), vehicle: saline); 203 % of control and 230 % of control (dose: 1800.0 micrograms/kg/injection, schedule: Q04DX003 (ip), vehicle: saline). Further, the T/C (dose: 3000.0 micrograms/kg/injection, schedule: Q04DX003 (ip), vehicle: saline) is 213 % of control and 267 % of control.
As to `C(C#CCN1CCOCC1)#CCN1CCOCC1`, the T/C runs as follows: under setting [1], 102 % of control and 103 % of control; under setting [2], 97 % of control; (dose: 50.0 mg/kg/injection, schedule: Q01DX009 (ip), vehicle: saline with Tween-80) 93 % of control and 96 % of control; (dose: 100.0 mg/kg/injection, schedule: Q01DX009 (ip), vehicle: saline with Tween-80) 90 % of control and 97 % of control (2×); (dose: 200.0 mg/kg/injection, schedule: Q01DX009 (ip), vehicle: saline with Tween-80) 90 % of control and 97 % of control (2×); (dose: 400.0 mg/kg/injection, schedule: Q01DX009 (ip), vehicle: saline with Tween-80) 90 % of control and 97 % of control and 107 % of control.
Turning to `O=C1NC2C(NC(=O)N2Cl)N1Cl` (configuration not stated), the T/C was 101 % of control (dose: 3.13 mg/kg/injection, schedule: Q01DX009 (ip), vehicle: saline with Tween-80); 98 % of control (dose: 6.25 mg/kg/injection, schedule: Q01DX009 (ip), vehicle: saline with Tween-80); 90 % of control and 98 % of control under setting [1]; 101 % of control (dose: 12.5 mg/kg/injection, schedule: Q01DX009 (ip), vehicle: saline); 86 % of control under setting [2]; 94 % of control (dose: 25.0 mg/kg/injection, schedule: Q01DX009 (ip), vehicle: saline). In addition, the T/C (dose: 25.0 mg/kg/injection, schedule: Q04DX003 (ip), vehicle: saline with Tween-80) is 105 % of control.
In the case of `C[N+]1=CN(c2ccc(Cl)cc2)Cc2cc(Cl)ccc21`, the T/C by setting is: under setting [3], 88 % of control; (dose: 100.0 mg/kg/injection, schedule: Q04DX003 (ip), vehicle: Klucel (hydroxypropylcellulose) (HPC)) 88 % of control; under setting [4], 86 % of control; (dose: 200.0 mg/kg/injection, schedule: Q04DX003 (ip), vehicle: Klucel (hydroxypropylcellulose) (HPC)) 102 % of control; (dose: 400.0 mg/kg/injection, schedule: Q01DX009 (ip), vehicle: Klucel (hydroxypropylcellulose) (HPC)) 102 % of control; (dose: 400.0 mg/kg/injection, schedule: Q04DX003 (ip), vehicle: Klucel (hydroxypropylcellulose) (HPC)) 100 % of control.
As to `CC(=O)CC(=O)Nc1ccc(-c2ccc(NC(=O)CC(C)=O)c(Cl)c2)cc1Cl`, the T/C is 87 % of control under setting [3] and 87 % of control under setting [4].
As for `COc1cccc2c1C(=O)c1c(O)c3c(c(O)c1C2=O)C[C@@](O)(/C(C)=N/NC(=O)c1ccc(Cl)cc1)C[C@@H]3OC1CC(N)C(O)C(C)O1` (some centres not stated), the T/C reads like this: (dose: 1.0 mg/kg/injection, schedule: Q01DX009 (ip), vehicle: suspension in saline) 155 % of control; (dose: 2.0 mg/kg/injection, schedule: Q01DX009 (ip), vehicle: suspension in saline) 188 % of control; (dose: 2.5 mg/kg/injection, schedule: Q01DX001 (ip), vehicle: saline with Tween-80) 155 % of control; (dose: 2.5 mg/kg/injection, schedule: Q01DX001 (ip), vehicle: water) 121 % of control; (dose: 4.0 mg/kg/injection, schedule: Q01DX009 (ip), vehicle: suspension in saline) 193 % of control; (dose: 5.0 mg/kg/injection, schedule: Q01DX001 (ip), vehicle: saline with Tween-80) 204 % of control. Further, the T/C reads like this: (dose: 5.0 mg/kg/injection, schedule: Q01DX001 (ip), vehicle: water) 279 % of control; (dose: 8.0 mg/kg/injection, schedule: Q01DX009 (ip), vehicle: suspension in saline) 322 % of control; (dose: 10.0 mg/kg/injection, schedule: Q01DX001 (ip), vehicle: saline with Tween-80) 196 % of control; (dose: 10.0 mg/kg/injection, schedule: Q01DX001 (ip), vehicle: water) 154 % of control and 300 % of control; (dose: 20.0 mg/kg/injection, schedule: Q01DX001 (ip), vehicle: saline with Tween-80) 280 % of control; (dose: 20.0 mg/kg/injection, schedule: Q01DX001 (ip), vehicle: water) 235 % of control. The T/C (dose: 40.0 mg/kg/injection, schedule: Q01DX001 (ip), vehicle: saline with Tween-80) was 205 % of control.
Consider `C[n+]1c(-c2cccc(OCCOCCOc3cccc(-c4c5cc(N)ccc5c5ccc(N)cc5[n+]4C)c3)c2)c2cc(N)ccc2c2ccc(N)cc21`, for which, where the note is “dose: 0.5 mg/kg/injection, schedule: Q01DX009 (ip), vehicle: water”, the T/C was 110 % of control.
